For 28 compounds, IC50 and Ki results are on record in ChEMBL document CHEMBL4311974, “Synthesis of coumarin-sulfonamide derivatives and determination of their cytotoxicity, carbonic anhydrase inhibitory and molecular docking studies” (Eur J Med Chem, 2019).

One experiment relates to HT-29. Briefly: cells. The conditions noted are these: Homo sapiens, HT-29, 24 h. It is filed as functional, cell-based.
The next experiment concerns HEK-293T. Briefly: cells. It is filed as ADME, cell-based. The conditions noted are these: Homo sapiens, 24 h.
For the next experiment, the target named is Carbonic anhydrase 1 (Homo sapiens, UniProt P00915).
Carbonic anhydrase 1, sequence (P00915 whole entry): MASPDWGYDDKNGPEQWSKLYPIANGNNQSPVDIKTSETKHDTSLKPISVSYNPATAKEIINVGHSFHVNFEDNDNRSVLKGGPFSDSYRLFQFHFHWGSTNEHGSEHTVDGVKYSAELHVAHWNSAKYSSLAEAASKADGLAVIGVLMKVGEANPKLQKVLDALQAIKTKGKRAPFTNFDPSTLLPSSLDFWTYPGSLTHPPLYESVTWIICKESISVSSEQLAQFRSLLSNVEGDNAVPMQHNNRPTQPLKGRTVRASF
The target in a further experiment is Carbonic anhydrase 9 (Homo sapiens, UniProt Q16790).
A further experiment addresses Carbonic anhydrase 12 (Homo sapiens, UniProt O43570).
The target in another experiment is Carbonic anhydrase 2 (Homo sapiens, UniProt P00918).

Carbonic anhydrase 12, sequence (O43570 whole entry): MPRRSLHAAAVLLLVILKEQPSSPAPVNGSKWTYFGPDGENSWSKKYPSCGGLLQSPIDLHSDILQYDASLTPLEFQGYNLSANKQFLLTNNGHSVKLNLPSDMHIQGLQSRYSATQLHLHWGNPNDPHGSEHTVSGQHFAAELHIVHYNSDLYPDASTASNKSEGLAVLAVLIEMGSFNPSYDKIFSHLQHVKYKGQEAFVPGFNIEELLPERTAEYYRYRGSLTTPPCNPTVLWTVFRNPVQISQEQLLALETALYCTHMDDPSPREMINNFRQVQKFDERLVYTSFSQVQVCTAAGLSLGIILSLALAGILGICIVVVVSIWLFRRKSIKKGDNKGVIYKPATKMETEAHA
Description for Carbonic anhydrase 12: Inhibition of human carbonic anhydrase 12 incubated for 10 mins prior to testing measured for 5 to 10 secs by phenol red-based stopped-flow CO2 hydration assay
Description for Carbonic anhydrase 2: Inhibition of human carbonic anhydrase 2 incubated for 10 mins prior to testing measured for 5 to 10 secs by phenol red-based stopped-flow CO2 hydration assay
Description for Carbonic anhydrase 9: Inhibition of human carbonic anhydrase 9 incubated for 10 mins prior to testing measured for 5 to 10 secs by phenol red-based stopped-flow CO2 hydration assay
Description for HEK-293T: Cytotoxicity in HEK293T cells assessed as reduction in cell viability incubated for 24 hrs under hypoxic condition by MTT assay
Description for HT-29: Cytotoxicity in human HT-29 cells assessed as reduction in cell viability incubated for 24 hrs under hypoxic condition by MTT assay

As a reminder, the IC50 is the concentration that gives 50% inhibition. Read a high IC50 as weaker potency in that assay. The term Ki denotes a measure of affinity in units of concentration, obtained from inhibition or displacement. Low readings indicate tighter binding, high ones weaker binding. For `NS(=O)(=O)c1ccc(C/N=C/c2cc(Br)ccc2OCc2cn(CCCOc3ccc4ccc(=O)oc4c3)nn2)cc1`, the IC50 turned out to be 17.7 µM in the experiment with HT-29 and 8.25 µM with HEK-293T. Further, the Ki at Carbonic anhydrase 1 is more than 10 µM; on Carbonic anhydrase 9, 0.16 µM.

Consider `NS(=O)(=O)c1ccc(C/N=C/c2ccccc2OCc2cn(CCCOc3ccc4ccc(=O)oc4c3)nn2)cc1`, for which the IC50 with HT-29 was found to be 14.3 µM; in the experiment on HEK-293T, 13.9 µM. Besides, the Ki at Carbonic anhydrase 1 was more than 10 µM; on Carbonic anhydrase 9 it was 0.187 µM.

Compound `COc1cc(C=O)ccc1OCc1cn(CCCOc2ccc3ccc(=O)oc3c2)nn1` returned an IC50 in the experiment on HT-29 of 65.4 µM. Moreover, the Ki at Carbonic anhydrase 1 is more than 10 µM; at Carbonic anhydrase 12, more than 10 µM; on Carbonic anhydrase 2, more than 10 µM; at Carbonic anhydrase 9, 0.133 µM.

Turning to `C#CCOc1cc(N(CC)CC)ccc1/C=N/Cc1ccc(S(N)(=O)=O)cc1`, in the experiment with HT-29, the IC50 was found to be 62.8 µM. Also, the Ki at Carbonic anhydrase 1 was more than 10 µM; on Carbonic anhydrase 9 it was 0.198 µM.

The compound `COc1cccc(/C=N/Cc2ccc(S(N)(=O)=O)cc2)c1OCc1cn(CCCOc2ccc3ccc(=O)oc3c2)nn1` came in with an IC50 in the experiment with HT-29 of 52.5 µM. Also, the Ki at Carbonic anhydrase 1 was more than 10 µM; on Carbonic anhydrase 9, 1.48 µM.

Take `O=Cc1ccc(OCc2cn(CCCOc3ccc4ccc(=O)oc4c3)nn2)cc1`: in the experiment on HT-29, the IC50 was found to be 100 µM. For the same compound, the Ki on Carbonic anhydrase 1 was more than 10 µM; at Carbonic anhydrase 12, more than 10 µM; at Carbonic anhydrase 2 it was more than 10 µM; on Carbonic anhydrase 9, 0.171 µM.

As for `COc1cccc2c1C(=O)c1c(O)c3c(c(O)c1C2=O)C[C@@](O)(C(=O)CO)C[C@@H]3O[C@H]1C[C@H](N)[C@H](O)[C@H](C)O1` [DOXORUBICIN], the figures for the IC50 in the experiment on HT-29 and in the experiment with HEK-293T were 5.38 µM and 1.05 µM, respectively.

As for `O=Cc1cc(Br)ccc1OCc1cn(CCCOc2ccc3ccc(=O)oc3c2)nn1`, the IC50 in the experiment on HT-29 was determined as 7.47 µM; in the experiment with HEK-293T it was 6.08 µM. Moreover, the Ki on Carbonic anhydrase 1 was more than 10 µM; at Carbonic anhydrase 12, more than 10 µM; on Carbonic anhydrase 2, more than 10 µM; at Carbonic anhydrase 9, 0.196 µM.

As to `C#CCOc1c(/C=N/Cc2ccc(S(N)(=O)=O)cc2)cccc1OC`, the IC50 was determined as 81.3 µM in the experiment on HT-29 and 135 µM in the experiment with HEK-293T. Also, the Ki at Carbonic anhydrase 1 is more than 10 µM; at Carbonic anhydrase 9 it was 1.19 µM.

In the experiment with HT-29, `C#CCOc1ccc([N+](=O)[O-])cc1/C=N/Cc1ccc(S(N)(=O)=O)cc1` registered an IC50 of 34.8 µM. In addition, the values for the Ki at Carbonic anhydrase 1 and on Carbonic anhydrase 9 were more than 10 µM and 0.212 µM, respectively.

Take `C#CCOc1cccc(/C=N/Cc2ccc(S(N)(=O)=O)cc2)c1`: the IC50 with HT-29 was 104 µM. Also, the figures for the Ki at Carbonic anhydrase 1 and on Carbonic anhydrase 9 were more than 10 µM and 2.03 µM, respectively.

Take `NS(=O)(=O)c1ccc(C/N=C/c2c(OCc3cn(CCCOc4ccc5ccc(=O)oc5c4)nn3)ccc3ccccc23)cc1`: the IC50 stood at 17 µM in the experiment on HT-29 and 119 µM in the experiment on HEK-293T. Moreover, the figures for the Ki at Carbonic anhydrase 1 and on Carbonic anhydrase 9 were more than 10 µM and 0.0455 µM, respectively.

With `C#CCOc1ccc(/C=N/Cc2ccc(S(N)(=O)=O)cc2)cc1OC`, the IC50 in the experiment with HT-29 was 136 µM; in the experiment with HEK-293T, 537 µM. The Ki is more than 10 µM at Carbonic anhydrase 1 and 0.0812 µM on Carbonic anhydrase 9.

In the experiment on HT-29, `O=Cc1c(OCc2cn(CCCOc3ccc4ccc(=O)oc4c3)nn2)ccc2ccccc12` returned an IC50 of 149 µM. Further, the Ki on Carbonic anhydrase 1 was more than 10 µM; at Carbonic anhydrase 12 it was more than 10 µM; on Carbonic anhydrase 2, more than 10 µM; on Carbonic anhydrase 9, 0.189 µM.

On to `C#CCOc1ccccc1/C=N/Cc1ccc(S(N)(=O)=O)cc1`, for which, in the experiment on HT-29, the midpoint of inhibition, the IC50, lay at 31 µM. Also, the Ki is more than 10 µM on Carbonic anhydrase 1 and 1.07 µM at Carbonic anhydrase 9.

`COc1cc(/C=N/Cc2ccc(S(N)(=O)=O)cc2)ccc1OCc1cn(CCCOc2ccc3ccc(=O)oc3c2)nn1`: the IC50 in the experiment with HT-29 was 31.6 µM. Also, the results for the Ki at Carbonic anhydrase 1 and on Carbonic anhydrase 9 were more than 10 µM and 0.76 µM, respectively.

In turn, `C#CCOc1ccc(Br)cc1/C=N/Cc1ccc(S(N)(=O)=O)cc1` came in with an IC50 in the experiment with HT-29 of 45.7 µM. Besides, the values for the Ki at Carbonic anhydrase 1 and at Carbonic anhydrase 9 were more than 10 µM and 0.19 µM, respectively.

With `COc1cccc(C=O)c1OCc1cn(CCCOc2ccc3ccc(=O)oc3c2)nn1`, the IC50 in the experiment with HT-29 was 13.3 µM; with HEK-293T it was 30.4 µM. In addition, the Ki on Carbonic anhydrase 1 is more than 10 µM; at Carbonic anhydrase 12 it was more than 10 µM; on Carbonic anhydrase 2, more than 10 µM; at Carbonic anhydrase 9, 1.17 µM.

On to `NS(=O)(=O)c1ccc(C/N=C/c2cc([N+](=O)[O-])ccc2OCc2cn(CCCOc3ccc4ccc(=O)oc4c3)nn2)cc1`, for which the IC50 in the experiment on HT-29 is 117 µM. The Ki was more than 10 µM at Carbonic anhydrase 1 and 0.857 µM at Carbonic anhydrase 9.

Take `CCN(CC)c1ccc(C=O)c(OCc2cn(CCCOc3ccc4ccc(=O)oc4c3)nn2)c1`: the IC50 in the experiment on HT-29 is 9.03 µM; in the experiment with HEK-293T, 19.2 µM. Also, the Ki was more than 10 µM on Carbonic anhydrase 1, more than 10 µM at Carbonic anhydrase 12, more than 10 µM at Carbonic anhydrase 2 and 0.158 µM at Carbonic anhydrase 9.

In the case of `C#CCOc1ccc(/C=N/Cc2ccc(S(N)(=O)=O)cc2)cc1`, the IC50 was 14.1 µM in the experiment with HT-29 and 398 µM in the experiment with HEK-293T. Besides, the Ki on Carbonic anhydrase 1 is more than 10 µM; on Carbonic anhydrase 9 it was 0.231 µM.

In the experiment on HT-29, `C#CCOc1ccc2ccccc2c1/C=N/Cc1ccc(S(N)(=O)=O)cc1` gave an IC50 of 46.1 µM. Further, the Ki was more than 10 µM at Carbonic anhydrase 1 and 1.09 µM on Carbonic anhydrase 9.

Take `O=Cc1cc([N+](=O)[O-])ccc1OCc1cn(CCCOc2ccc3ccc(=O)oc3c2)nn1`: in the experiment on HT-29, it took 53.6 µM to reach half-maximal inhibition (IC50). The Ki at Carbonic anhydrase 1 is more than 10 µM; on Carbonic anhydrase 12, more than 10 µM; at Carbonic anhydrase 2 it was more than 10 µM; on Carbonic anhydrase 9, 0.137 µM.

`O=Cc1cccc(OCc2cn(CCCOc3ccc4ccc(=O)oc4c3)nn2)c1` returned a half-inhibitory concentration (IC50) in the experiment on HT-29 of 129 µM. In addition, the Ki at Carbonic anhydrase 1 was more than 10 µM; at Carbonic anhydrase 2 it was more than 10 µM; on Carbonic anhydrase 9, 0.192 µM.

Turning to `NS(=O)(=O)c1ccc(C/N=C/c2cccc(OCc3cn(CCCOc4ccc5ccc(=O)oc5c4)nn3)c2)cc1`, the IC50 in the experiment on HT-29 stood at 107 µM. Also, the Ki on Carbonic anhydrase 1 was more than 10 µM; at Carbonic anhydrase 9, 0.955 µM.

Take `O=Cc1ccccc1OCc1cn(CCCOc2ccc3ccc(=O)oc3c2)nn1`: the IC50 came out at 18.9 µM in the experiment with HT-29 and 13.7 µM in the experiment on HEK-293T. For the same compound, the Ki is more than 10 µM at Carbonic anhydrase 1 and 0.128 µM at Carbonic anhydrase 9.

In turn, `NS(=O)(=O)c1ccc(C/N=C/c2ccc(OCc3cn(CCCOc4ccc5ccc(=O)oc5c4)nn3)cc2)cc1` had a 50% inhibitory concentration (IC50) in the experiment on HT-29 of 125 µM. Further, the Ki is more than 10 µM at Carbonic anhydrase 1 and 0.169 µM at Carbonic anhydrase 9.

In the case of `CCN(CC)c1ccc(/C=N/Cc2ccc(S(N)(=O)=O)cc2)c(OCc2cn(CCCOc3ccc4ccc(=O)oc4c3)nn2)c1`, the concentration for half-maximal inhibition (IC50) in the experiment on HT-29 was 23.3 µM; with HEK-293T, 29.5 µM. Moreover, the results for the Ki at Carbonic anhydrase 1 and at Carbonic anhydrase 9 were more than 10 µM and 2.18 µM, respectively.
